Columns and labels:
[1] = test system: IPOHE (Morningglory, Ivyleaf); assay: Preemergence herbicidal evaluation; assay type: in vivo, Ipomoea hederacea; settings: rated 4-5 weeks after treatment, rating scale 0-9
How it was run: (§1)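 Test compound, dissolved in aqueous acetone, was sprayed over planted soil cups at an equivalent of about 0.0156 to 0.500 kg/ha; seeds had been mixed with potting soil. Greenhouse growth followed, with visual 0-9 scoring of injury at four to five weeks.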

ABUTH (Velvetleaf) = assay: Preemergence herbicidal evaluation; assay type: in vivo, Abutilon theophrasti; settings: rated 4-5 weeks after treatment, rating scale 0-9
How it was run: as §1

CASOB (Sicklepod) [2] = assay: Postemergence herbicidal evaluation; assay type: in vivo, Cassia obtusifolia; settings: postemergence
How it was run: (§2)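 Young plants, roughly two weeks from seeding, receive the active ingredient as a sprayed dispersion (acetone/water 50/50, 0.5% TWEEN 20) at 40 psi. Doses span about 0.0156 to 0.500 kg/ha. A visual score from 0 to 9 compares treated with control plants four to five weeks on.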

MOOVA (Monochoria) = assay: Preemergence weed control under flooded paddy conditions; assay type: in vivo, Monochoria vaginalis; settings: rated 3-4 weeks after treatment
How it was run: (§3)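 Seeds or propagules sown in silt loam kept flooded 1.5-3 cm; compounds in 50/50 acetone/water pipetted into flood water at about 0.0313 to 0.500 kg/ha. Greenhouse; visual 0-9 rating versus untreated control 3-4 weeks after treatment.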

[3] = test system: CHEAL (Lambsquarters, Common); assay: Preemergence herbicidal evaluation; assay type: in vivo, Chenopodium album; settings: rated 4-5 weeks after treatment, rating scale 0-9
How it was run: as §1

[4] = test system: CHEAL (Lambsquarters, Common); assay: Postemergence herbicidal evaluation; assay type: in vivo, Chenopodium album; settings: postemergence
How it was run: as §2

[5] = test system: TRZAWR (Wheat, Winter, cv Riband); assay: Postemergence herbicidal evaluation; assay type: in vivo, Triticum aestivum; settings: postemergence
How it was run: as §2

ORYSAT (Rice, Tebonnet) = assay: Preemergence herbicidal evaluation; assay type: in vivo, Oryza sativa, (L.) Tebonnet; settings: rated 4-5 weeks after treatment, rating scale 0-9
How it was run: as §1

[6] = test system: GLXMAW (Soybean, Williams); assay: Postemergence herbicidal evaluation; assay type: in vivo, Glycine max, (L.) Merr. cv Williams; settings: postemergence
How it was run: as §2

[7] = test system: IPOHE (Morningglory, Ivyleaf); assay: Postemergence herbicidal evaluation; assay type: in vivo, Ipomoea hederacea; settings: postemergence
How it was run: as §2

CASOB (Sicklepod) [8] = assay: Preemergence herbicidal evaluation; assay type: in vivo, Cassia obtusifolia; settings: rated 4-5 weeks after treatment, rating scale 0-9
How it was run: as §1

[9] = test system: GLXMAW (Soybean, Williams); assay: Preemergence herbicidal evaluation; assay type: in vivo, Glycine max, (L.) Merr. cv Williams; settings: rated 4-5 weeks after treatment, rating scale 0-9
How it was run: as §1

ECHCG (Barnyardgrass) = assay: Postemergence herbicidal evaluation; assay type: in vivo, Echinochloa crus-galli; settings: postemergence
How it was run: as §2

AMBEL (Ragweed, Common) [10] = assay: Preemergence herbicidal evaluation; assay type: in vivo, Ambrosia artemisifolia; settings: rated 4-5 weeks after treatment, rating scale 0-9
How it was run: as §1

AMBEL (Ragweed, Common) [11] = assay: Postemergence herbicidal evaluation; assay type: in vivo, Ambrosia artemisifolia; settings: postemergence
How it was run: as §2

[12] = test system: SAGPY (Arrowhead (Pygmaea)); assay: Preemergence weed control under flooded paddy conditions; assay type: in vivo, Sagittaria pygmaea; settings: rated 3-4 weeks after treatment
How it was run: as §3

`Cc1cccc(CN2C(=O)CSC2=Nc2cc(-n3c(=O)cc(C(F)(F)F)n(C)c3=O)c(F)cc2Cl)c1` [Compound 130, 3-{4-Chloro-2-fluoro-5-{[3-(m-methylbenzyl)-4-oxo-2-thiazolidinylidene]amino}phenyl}-1-methyl-6-(trifluoromethyl)-2,4 (1H, 3H)-pyrimidinedione] was tested, and the “Preemergence herbicidal rating IPOHE” value ([1]; rate 0.0156 kg/ha) was 0.0, the “Preemergence herbicidal rating IPOHE” value ([1]; rate 0.0313 kg/ha) was 0.0 and the “Preemergence herbicidal rating IPOHE” value ([1]; rate 0.0625 kg/ha) was 2.0. The “Preemergence herbicidal rating IPOHE” value ([1]; rate 0.1250 kg/ha) was 9.0, the “Preemergence herbicidal rating IPOHE” value ([1]; rate 0.2500 kg/ha) was 7.0 and the “Preemergence herbicidal rating ABUTH” value (ABUTH (Velvetleaf); rate 0.0156 kg/ha) was 1.0. The “Preemergence herbicidal rating ABUTH” value (ABUTH (Velvetleaf); rate 0.0313 kg/ha) was 9.0, the “Preemergence herbicidal rating ABUTH” value (ABUTH (Velvetleaf); rate 0.0625 kg/ha) was 9.0 and the “Preemergence herbicidal rating ABUTH” value (ABUTH (Velvetleaf); rate 0.1250 kg/ha) was 9.0. The “Preemergence herbicidal rating ABUTH” value (ABUTH (Velvetleaf); rate 0.2500 kg/ha) was 9.0, the “herbicidal rating CASOB” value (CASOB (Sicklepod) [2]; rate 0.0156 kg/ha) was 2.0 and the “herbicidal rating CASOB” value (CASOB (Sicklepod) [2]; rate 0.0313 kg/ha) was 4.0. The “herbicidal rating CASOB” value (CASOB (Sicklepod) [2]; rate 0.0625 kg/ha) was 5.0, the “herbicidal effect rating, MOOVA” value (MOOVA (Monochoria); 0.0313 kg/ha) was 0.0 and the “herbicidal effect rating, MOOVA” value (MOOVA (Monochoria); 0.0625 kg/ha) was 0.0. For the same molecule, the “herbicidal effect rating, MOOVA” value (MOOVA (Monochoria); 0.1250 kg/ha) was 6.0, the “herbicidal effect rating, MOOVA” value (MOOVA (Monochoria); 0.2500 kg/ha) was 6.0 and the “Preemergence herbicidal rating CHEAL” value ([3]; rate 0.0156 kg/ha) was 9.0. For the same molecule, the “Preemergence herbicidal rating CHEAL” value ([3]; rate 0.0313 kg/ha) was 9.0, the “Preemergence herbicidal rating CHEAL” value ([3]; rate 0.0625 kg/ha) was 9.0 and the “Preemergence herbicidal rating CHEAL” value ([3]; rate 0.1250 kg/ha) was 9.0. The “Preemergence herbicidal rating CHEAL” value ([3]; rate 0.2500 kg/ha) was 9.0, the “herbicidal rating CHEAL” value ([4]; rate 0.0156 kg/ha) was 7.0 and the “herbicidal rating CHEAL” value ([4]; rate 0.0313 kg/ha) was 9.0. For the same molecule, the “herbicidal rating CHEAL” value ([4]; rate 0.0625 kg/ha) was 9.0, the “herbicidal rating TRZAWR” value ([5]; rate 0.0156 kg/ha) was 3.5 and the “herbicidal rating TRZAWR” value ([5]; rate 0.0313 kg/ha) was 3.5. The “herbicidal rating TRZAWR” value ([5]; rate 0.0625 kg/ha) was 4.0, the “Preemergence herbicidal rating ORYSAT” value (ORYSAT (Rice, Tebonnet); rate 0.0156 kg/ha) was 0.0 and the “Preemergence herbicidal rating ORYSAT” value (ORYSAT (Rice, Tebonnet); rate 0.0313 kg/ha) was 0.0. The “Preemergence herbicidal rating ORYSAT” value (ORYSAT (Rice, Tebonnet); rate 0.0625 kg/ha) was 1.0, the “Preemergence herbicidal rating ORYSAT” value (ORYSAT (Rice, Tebonnet); rate 0.1250 kg/ha) was 3.0 and the “Preemergence herbicidal rating ORYSAT” value (ORYSAT (Rice, Tebonnet); rate 0.2500 kg/ha) was 6.0. For the same molecule, the “herbicidal rating GLXMAW” value ([6]; rate 0.0156 kg/ha) was 5.5, the “herbicidal rating GLXMAW” value ([6]; rate 0.0313 kg/ha) was 7.0 and the “herbicidal rating GLXMAW” value ([6]; rate 0.0625 kg/ha) was 8.0. The “herbicidal rating IPOHE” value ([7]; rate 0.0156 kg/ha) was 9.0, the “herbicidal rating IPOHE” value ([7]; rate 0.0313 kg/ha) was 9.0 and the “herbicidal rating IPOHE” value ([7]; rate 0.0625 kg/ha) was 9.0. For the same molecule, the “Preemergence herbicidal rating CASOB” value (CASOB (Sicklepod) [8]; rate 0.0156 kg/ha) was 0.0, the “Preemergence herbicidal rating CASOB” value (CASOB (Sicklepod) [8]; rate 0.0313 kg/ha) was 1.0 and the “Preemergence herbicidal rating CASOB” value (CASOB (Sicklepod) [8]; rate 0.0625 kg/ha) was 2.0. The “Preemergence herbicidal rating CASOB” value (CASOB (Sicklepod) [8]; rate 0.2500 kg/ha) was 3.0, the “Preemergence herbicidal rating GLXMAW” value ([9]; rate 0.0156 kg/ha) was 0.0 and the “Preemergence herbicidal rating GLXMAW” value ([9]; rate 0.0313 kg/ha) was 0.0. The “Preemergence herbicidal rating GLXMAW” value ([9]; rate 0.0625 kg/ha) was 2.0, the “Preemergence herbicidal rating GLXMAW” value ([9]; rate 0.1250 kg/ha) was 3.0 and the “Preemergence herbicidal rating GLXMAW” value ([9]; rate 0.2500 kg/ha) was 5.0. The “herbicidal rating ECHCG” value (ECHCG (Barnyardgrass); rate 0.0156 kg/ha) was 2.0, the “herbicidal rating ECHCG” value (ECHCG (Barnyardgrass); rate 0.0313 kg/ha) was 2.0 and the “herbicidal rating ECHCG” value (ECHCG (Barnyardgrass); rate 0.0625 kg/ha) was 3.0. The “Preemergence herbicidal rating AMBEL” value (AMBEL (Ragweed, Common) [10]; rate 0.0156 kg/ha) was 0.0, the “Preemergence herbicidal rating AMBEL” value (AMBEL (Ragweed, Common) [10]; rate 0.0313 kg/ha) was 1.0 and the “Preemergence herbicidal rating AMBEL” value (AMBEL (Ragweed, Common) [10]; rate 0.0625 kg/ha) was 7.0. For the same molecule, the “Preemergence herbicidal rating AMBEL” value (AMBEL (Ragweed, Common) [10]; rate 0.1250 kg/ha) was 9.0, the “Preemergence herbicidal rating AMBEL” value (AMBEL (Ragweed, Common) [10]; rate 0.2500 kg/ha) was 9.0 and the “herbicidal rating AMBEL” value (AMBEL (Ragweed, Common) [11]; rate 0.0156 kg/ha) was 9.0. For the same molecule, the “herbicidal rating AMBEL” value (AMBEL (Ragweed, Common) [11]; rate 0.0313 kg/ha) was 9.0, the “herbicidal rating AMBEL” value (AMBEL (Ragweed, Common) [11]; rate 0.0625 kg/ha) was 9.0 and the “herbicidal effect rating, SAGPY” value ([12]; 0.0313 kg/ha) was 4.0. For the same molecule, the “herbicidal effect rating, SAGPY” value ([12]; 0.0625 kg/ha) was 4.0, the “herbicidal effect rating, SAGPY” value ([12]; 0.1250 kg/ha) was 0.0 and the “herbicidal effect rating, SAGPY” value ([12]; 0.2500 kg/ha) was 3.0.

Source: patent US20020137929A1, “1 - (3-heterocyclylphenyl) isothiourea, -isourea, -guanidine and -amidine herbicidal agents” (Intellectual Property Department, BASF Aktiengesellschaft, priority 1998, published 2002)
